In US6869929B2, “Use of transcription factors for treating inflammation and other diseases” (Beth Israel Deaconess Medical Center, priority 2000, dated 2005):

Assays:
Type in all cases: cell-based, human
COL2A1 = COL2A1 mRNA time course in C-28/I2 chondrocytes; conditions: earlier time points
ESE-1 [1] = test: ESE-1 mRNA Northern blot in LB-12 osteoblasts; conditions: LB-12 cells
Method: U-87 Mg and U-138 Mg (human glioma), THP-1 (human monocytic), RAW 264.7 (murine monocytic), LB-12 (human osteoblast-like large T antigen transformed bone marrow stromal cells), and human chondrocytes were grown and treated with cytokines as described (Apperley, J., et al. 1990. J Bone Mineral Res. 5:S93; Goldring, M. B., et al. 1994. J Clin Invest 94:2307-16; Goldring, S. R., et al. 1983. J Bone Joint Surg 65:575-84; Libermann, T. A., et al. 1987. Embo J. 6:1627-1632).
Total RNA was harvested using QIAshreder (Qiagen) and RNeasy® Mini Kit (Quiagen) or Trizol (Gibco BRL). Poly A^+ RNA was prepared with MicroPoly(A) Pure (Ambion). Northern blots (5 μg total RNA) were hybridized using a full length ESE-1 cDNA probe as described (Oettgen, P., et al. et al. 1997, Mol Cell Biol 17:4419-33.).
Osteoblasts, the bone cells responsible for bone formation, represent another connective tissue cell target of inflammatory cytokines in joint disorders (Bogoch, E. R., and E. Moran. 1998, Can J Surg 41:264-71). […] LB-12 cells were incubated for different times in the absence or presence of IL-1β. […] Since the rapid, but transient induction of ESE-1 resembles that of immediate early genes, we tested the effect of the protein synthesis inhibitor cycloheximide which superinduces expression of certain genes due to mRNA stabilization. Cycloheximide alone had no effect, but superinduced IL-1β-mediated ESE-1 mRNA expression (FIG. 11d).

ESE-1 [2] = test: ESE-1 mRNA time course in C-28/I2 chondrocytes; conditions: 10 μg/ml, absence or presence of IL-1β, up through 8 h
Method: The immortalized human chondrocyte cell lines T/C-28a2 and C-28/I2 (Goldring M B, et al., J Clin Invest 1994;94:2307-16) were cultured in Dulbecco's modified Eagle's medium (DMEM)/Ham's F12 (1/1, v/v; Life Technologies) containing 10% fetal calf serum (FCS; Biowhitaker) and passaged using trypsin-EDTA solution (Life Technologies) at >95% confluency every 5 to 6 days. The temperature-sensitive tsT/AC62 cells (Robbins J R, et al., Arthritis Rheum 2000;43:2189-201) were grown in DMEM/Ham's F12 (1/1, v/v) supplemented with 10% FCS, 10 IU/ml penicillin, 100 μg/ml streptomycin and maintained at 32° C. in 5% CO2 and the culture medium was changed every 3 to 4 days. The cells were grown to confluence and passaged by treatment with trypsin/EDTA as described previously (Robbins J R, et al., Arthritis Rheum 2000;43:2189-201). Suspensions of tsT/AC62 were embedded in alginate and cultured for X days. […]
We first examined the time course of ESE-1 expression at the mRNA level in the C-28/I2 human chondrocyte cell line after treatment with IL-1β for periods of time between 0.5 and 24 h (FIG. 17). In IL-1β-treated quiescent cultures, ESE-1 mRNA was detected at 30 min, increased to peak levels within 4 h, and declined gradually thereafter. […]

C[C@@H]1C[C@@H]([C@H](O)CC2CC(=O)NC(=O)C2)C(=O)[C@@H](C)C1 [Cycloheximide, cycloheximide]
IL-1β inhibition of COL2A1 mRNA in presence of agent (COL2A1): appeared to abolish this inhibition
IL-1β-mediated ESE-1 mRNA expression in presence of agent (ESE-1 [1]): superinduced
ESE-1 mRNA expression, agent alone (ESE-1 [1]; 1, 2, 6, 24 hours): had no effect
ESE-1 mRNA levels in presence of agent (ESE-1 [2]): stabilized the levels of ESE-1 mRNA and augmented control and IL-1β-stimulated expression
